Measured values from US7838496B2, “Template-fixed peptidomimetics as medicaments against HIV and cancer” (Polyphor AG/Ltd., priority 2003, dated 2010).
Where a SMILES comes first, the peptide text is derived from it. Bridges are numbered along the chain shown (N, C = ends). [ ]: non-standard residue; d: D form. Phe(4-NH2) = Nc1ccc(C[C@H](N)C(=O)O)cc1; 2Nal = N[C@@H](Cc1ccc2ccccc2c1)C(=O)O; Cit = NC(=O)NCCC[C@H](N)C(=O)O; Nlys = NCCCCNCC(=O)O

What was measured:
[1] = system: human red blood cells (hRBC); assay type: cell-based; conditions: red cells of human, 1 h
Method: The peptides were tested for their hemolytic activity against human red blood cells (hRBC). Fresh hRBC were washed three times with phosphate buffered saline (PBS) by centrifugation for 10 min at 2000×g. Peptides at a concentration of 100 μM were incubated with 20% v/v hRBC for 1 hour at 37-C. The final erythrocyte concentration was approximately 0.9×10^9 cells per mL. A value of 0% resp. 100% cell lysis was determined by incubation of the hRBC in the presence of PBS alone and respectively 0.1% Triton X-100 in H2O. The samples were centrifuged and the supernatant was 20-fold diluted in PBS buffer and the optical density (OD) of the sample at […] was measured. The 100% lyses value (OD540H2O) gave an OD540 of approximately 1.3-1.8. Percent hemolysis was calculated as follows: (OD540peptide/OD540H2O)×100%.

[2] = in vitro; assay type: cell-based
Method: The cytotoxicity of the peptides to HELA cells (Acc57) and COS-7 cells (CRL-1651) was determined using the MTl reduction assay [see ref. 6 and 7, below]. Briefly the method was as follows: HELA cells and COS-7 cells were seeded at 7.0·10^3 and, respectively, 4.5·10^3 cells per well and grown in 96-well microtiter plates for 24 hours at 37° C. at 5% CO2. At this point, time zero (Tz) was determined by MTT reduction (see below). The supernatant of the remaining wells was discarded and fresh medium and the peptides in serial dilutions of 12.5, 25 and 50 μM were pipeted into the wells. Each peptide concentration was assayed in triplicate. Incubation of the cells was continued for 48 hours at 37° C. at 5% CO2. Wells were then washed once with PBS and subsequently 100 μl MTT reagent (0.5 mg/mL in medium RPMI1640 and, respectively, DMEM) was added to the wells. This was incubated at 37° C. for 2 hours and subsequently the medium was aspirated and 100 μl isopropanol was added to each well. The absorbance at 595 nm of the solubilized product was measured (OD595peptide). For each concentration averages were calculated from triplicates. The percentage of growth was calculated as follows: (OD595peptide-OD595Tz-OD595Empty well)/(OD595Tz-OD595Empty well)×100% and was plotted for each peptide concentration.
The LC 50 values (Lethal Concentration, defined as the concentration that kills 50% of the cells) were determined for each peptide by using the trend line function of EXCEL (Microsoft Office 2000) for the concentrations (50, 25, 12.5 and 0 μM), the corresponding growth percentages and the value −50, (=TREND(C50:C0,%50:%0,−50))
(§1) All fine chemicals came from Merck (D)armstadt, Germany).

[3] = target: CCRF-CEM cells (Homo sapiens, UniProt P61073); conditions: read-out: IC50 (μM) Cell migration assay; CCRF-CEM cells migrating to 1 nM SDF-1, 4 hours
Chain of CCRF-CEM cells (P61073 whole entry): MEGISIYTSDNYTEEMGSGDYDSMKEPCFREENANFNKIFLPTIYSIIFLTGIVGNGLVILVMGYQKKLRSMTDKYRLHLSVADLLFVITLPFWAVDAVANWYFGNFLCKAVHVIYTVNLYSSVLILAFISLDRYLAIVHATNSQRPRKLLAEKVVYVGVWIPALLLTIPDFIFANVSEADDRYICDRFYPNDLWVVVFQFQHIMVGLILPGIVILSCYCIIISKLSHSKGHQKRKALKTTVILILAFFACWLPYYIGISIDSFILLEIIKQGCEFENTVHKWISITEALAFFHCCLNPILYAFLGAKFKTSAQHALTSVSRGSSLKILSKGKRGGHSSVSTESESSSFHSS
Method: BELA cells and CCRF-CEM cells were maintained in RPMI1640 plus 5% FBS, Pen/Strept and 2 mM L-Glutamine. […] All cell lines were grown at 37° C. at 5% CO2. Cell media, media supplements, PBS-buffer, HEPES, Pen/Strept., L-Glutamine and sera were purchased from Gibco (Pailsey, UK). All fine chemicals came from Merck (D)armstadt, Germany).
Chemotactic Assay (Cell Migration Assay)
The chemotactic response of CCRF-CEM cells to a gradient of stromal cell-derived factor 1 a (SDF-1) was measured using disposable assay plates from Neuroprobe (5 μ pore size) (Gaithersburg, Md.), according to the manufacturer's directions and references therein [especially ref. 8, below]. Briefly, one 175 cm^2 flask was washed once with Dubecco's phosphate buffered saline (DPBS), and trypsinized for 10 minutes or until cells had lifted. The trypsin was neutralized by the addition of fresh medium containing serum and the cells were pelleted, washed once in DPBS, and resuspended at 1-0.5×10^7 cells/ml in RPM!+0.5% bovine serum albumin (BSA). 451 μl of cell suspension were mixed with 5μ of 10-fold concentrated PEM peptide diluted in the same assay medium. 35 μl of this mixture were applied to the top of the assay filter. The cells were allowed to migrate (at 37°) into the bottom chamber of the assay plate containing 1 nM SDF-1. After 4 hours, the filter was removed and MTT was added to the migrated cells to a final concentration of 0.5 mg/ml, and incubated for a further 4 hours. After labeling with MTT, all medium was removed and 100 μl of isopropanol+10 mM HCl were added to the cells. The optical absorbance at 595 nm (ABS595) was read using a Tecan Genios plate reader with Magellan software. The number of cells migrated was determined by comparing ABS595 values against a standard curve generated with a known number of cells in the assay plate and were plotted against SDF-1 concentration to obtain a sigmoidal curve and to determine the IC50 values. The values for IC50 were determined using the Trendline function in Microsoft Excel by fitting a logarithmic curve to the averaged datapoints.

[4] = target: T1, CXCR4 (Homo sapiens, UniProt P61073); test: Ca2+ assay: CXCR4 antagonizing activity of the peptides; assay type: cell-based; conditions: CXCR4 transfected pre-B cells, Fura-2 fluorescence, 37° C.
T1 construct: expressed in transfected cells
T1 sequence (P61073 whole entry): as above
Method: 2.2. Ca^2+− assay: CXCR4Antagonizing Activity of the Peptides
3-4 Mio CXCR4 transfected pre-B cells [see references 1, 2 and 3, below] per measurement were resuspended in 200 μl MSB (20 mM 4-(2-Hyddroxyethyl)-piperazin-1-ethansulfonic acid (HEPES), 136 mM NaCl, 4.8 mM KCl and 1 mM CaCl2) containing 5 mM D-Glucose and were loaded with 0.75 μl of 1 mM Fura-2-acetoxymethylester for 17 minutes at 37° C. The cells were washed free from Fura-2-AM with a platelet centrifuge and resuspended in 800 R1 MSB containing 5 mM D-Glucose. The peptides to be administered were diluted to a 100 fold end concentration in MSB/0.2% PPL, and 8 pl were injected. [Ca^2+ ]i-dependent fluorescence change in response to single or sequential stimulation with the peptide was recorded with a fluorimeter at an excitation wavelength of 340 nm and an end emission wavelength of 510 nm [see ref. 4, below]. Measurements were done under continuous stirring at 37° C. The signal intension was calibrated with 3 mM4 CaCl2/1 nM lonomycin (maximal fura-2-acetoxymethylester saturation) and […] MnCl2 (minimal Fura-2-acetoxymethylester saturation) and [Ca^2+]i-changes are presented in % fura-2-acetoxymethylester saturation.
MSB: 20 nmM HEPES, 136 mM NaCl, 4.8 mM KCl, 1 mM CaCl2.2H2O, pH 7.4; Osmolarity: 310 mOsm adjusted with NaOH or HCl, adjusted with dH2O or PBS.
MSB plus: 5 mM D-glucose in MSB (50 mg/50 mL).
Fura 2-acetoxymethylester: 1 mM stock solution in dimethylsulfoxide.

[5] = system: 'CCR5' cells / Hut/4-3 cells co-cultivation; test: FIGS-Assay (co-cultivated cell cultures, beta-galactosidase/ONPG read-out); assay type: cell-based; conditions: at 200 nM; 48 hours of co-cultivation
Method: The assay was performed according to ref. 5, below. Stock dilutions of the peptides (10 mM) were prepared by dissolving in 10 mM Tris-HCl at room temperature. Stock solutions were kept at +4° C., light protected. Working dilutions were prepared extemporaneously by serial dilution in Phosphate Buffered Saline (PBS) and added in a final volume of 10 μL directly to the cell cultures. After 48 hours of co-cultivation the cultures were rinsed with PBS and then exposed to glutaraldehyde/formaldehyde (0.2%/2%) in PBS for five minutes. For photometric quantification the fixed cultures were subsequently incubated with ortho-nitro-phenyl-galactopyranoside (ONPG) as a O-galactosidase substrate, which was enzymatically converted into the chromophore ortho-nitrophenol (ONP). The read out is directly obtained by measuring optical density of wells at 405 nm in an IEMS 96 well-plate reader.
as §1

In the case of `N=C(N)NCCC[C@H](NC(=O)[C@@H]1CSSC[C@H](NC(=O)[C@H](Cc2ccc3ccccc3c2)NC(=O)[C@H](CCCNC(=N)N)NC(=O)[C@@H](N)CCCNC(=N)N)C(=O)N[C@@H](Cc2ccc(O)cc2)C(=O)N[C@@H](CCCNC(N)=O)C(=O)N[C@@H](CCCCN)C(=O)N2CCC[C@@H]2C(=O)N2CCC[C@H]2C(=O)N[C@@H](Cc2ccc(O)cc2)C(=O)N[C@@H](CCCNC(=N)N)C(=O)N[C@@H](CCCNC(N)=O)C(=O)N1)C(N)=O` [Example 7] (H-RR[2Nal]CY[Cit]K[dP]PYR[Cit]CR-NH2; disulfide 4-13; N-terminus assumed), the “Hemolysis at 100 μM” value [1] is reported as 0.3%, the CC50 [2] is reported as 56 µM and the IC50 [3] is reported as 0.55 µM.
In the case of `CC(=O)N[C@@H](CCCNC(=N)N)C(=O)N[C@@H](CCCNC(=N)N)C(=O)N[C@@H](Cc1ccc2ccccc2c1)C(=O)N[C@H]1CSSC[C@@H](C(=O)N[C@@H](CCCNC(=N)N)C(N)=O)NC(=O)[C@H](CCCNC(N)=O)NC(=O)[C@H](CCCNC(=N)N)NC(=O)[C@H](Cc2ccc(O)cc2)NC(=O)[C@@H]2CCCN2C(=O)[C@H]2CCCN2C(=O)[C@H](CCCCN)NC(=O)[C@H](CCCNC(N)=O)NC(=O)[C@H](Cc2ccc(O)cc2)NC1=O` [Example 8] (Ac-RR[2Nal]CY[Cit]K[dP]PYR[Cit]CR-NH2; disulfide 4-13), the “Hemolysis at 100 μM” value [1] is reported as 0.1%, the IC50 [4] is reported as 13.9 nM and the “FIGS % inhibition at 200 nM” value [5] is reported as 90.6%. The CC50 at 48 h [2] was 226 µM and the IC50 [3] was 5 µM.
In the case of `N=C(N)NCCC[C@@H](N)C(=O)N[C@@H](CCCNC(=N)N)C(=O)N[C@@H](Cc1ccc2ccccc2c1)C(=O)N[C@H]1CSSC[C@@H](C(=O)N[C@@H](CCCNC(=N)N)C(N)=O)NC(=O)[C@H](CCCNC(N)=O)NC(=O)[C@H](CCCNC(=N)N)NC(=O)[C@H](Cc2ccc(O)cc2)NC(=O)[C@@H]2CCCN2C(=O)[C@H]2CCCN2C(=O)[C@H](CCCCN)NC(=O)[C@H](CCCNC(N)=O)NC(=O)[C@H](Cc2ccc(O)cc2)NC1=O` [Example 10] (H-[dR]R[2Nal]CY[Cit]K[dP]PYR[Cit]CR-NH2; disulfide 4-13), the “Hemolysis at 100 μM” value [1] is reported as 0.6%, the IC50 [4] is reported as 21.5 nM and the “FIGS % inhibition at 200 nM” value [5] is reported as 82.0%. The CC50 at 48 h [2] was 118 µM and the IC50 [3] was 0.55 µM.
With `N=C(N)NCCC[C@H](NC(=O)[C@@H]1CSSC[C@H](NC(=O)[C@H](Cc2ccc(N)cc2)NC(=O)[C@H](CCCNC(=N)N)NC(=O)[C@@H](N)CCCNC(=N)N)C(=O)N[C@@H](Cc2ccc(O)cc2)C(=O)N[C@@H](CCCNC(N)=O)C(=O)N[C@@H](CCCCN)C(=O)N2CCC[C@@H]2C(=O)N2CCC[C@H]2C(=O)N[C@@H](Cc2ccc(O)cc2)C(=O)N[C@@H](CCCNC(=N)N)C(=O)N[C@@H](CCCNC(N)=O)C(=O)N1)C(N)=O` [Example 12] (H-RR[Phe(4-NH2)]CY[Cit]K[dP]PYR[Cit]CR-NH2; disulfide 4-13) the “Hemolysis at 100 μM” value [1] was 0.1%, the IC50 [4] was 13.9 nM and the “FIGS % inhibition at 200 nM” value [5] was 71.3%. The CC50 at 48 h [2] was 226 µM and the IC50 [3] was 5 µM.
In the case of `N=C(N)NCCC[C@H](NC(=O)[C@@H]1CSSC[C@H](NC(=O)[C@H](Cc2ccc3ccccc3c2)NC(=O)[C@H](CCCNC(=N)N)NC(=O)CNCCCCN)C(=O)N[C@@H](Cc2ccc(O)cc2)C(=O)N[C@@H](CCCNC(N)=O)C(=O)N[C@@H](CCCCN)C(=O)N2CCC[C@@H]2C(=O)N2CCC[C@H]2C(=O)N[C@@H](Cc2ccc(O)cc2)C(=O)N[C@@H](CCCNC(=N)N)C(=O)N[C@@H](CCCNC(N)=O)C(=O)N1)C(N)=O` [Example 16] (H-[Nlys]R[2Nal]CY[Cit]K[dP]PYR[Cit]CR-NH2; disulfide 4-13), the IC50 [3] is reported as 1.04 µM.
